Test results: patent publication US12172975B2, “1H-indazole carboxamides as receptor-interacting protein kinase 1 inhibitors (RIPK1)” (BRISTOL-MYERS SQUIBB COMPANY, priority 2018, dated 2024)
Counter-ions that a name gives are not always drawn. Like-named read-outs stand apart in the source and are kept apart here.

What was measured:
[1] = tested on: MLKL phosphorylation in HT29-L23 human colorectal adenocarcinoma cells; assay: MLKL Phosphorylation High-Content Assay; format: cell-based; conditions: 6 h, necroptosis induced with TNFα, SMAC mimetic and Z-VAD, read-out: pMLKL (IC50)
In short: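 Following fixation and staining for phospho-S358 MLKL with Hoechst nuclear counterstain, high-content imaging quantified phosphorylation in HT29-L23 cells challenged 6 h with TNFα 35 ng/mL, SMAC mimetic 700 nM and Z-VAD 140 nM. Nec-1s at 6.25 μM defined full inhibition; 4-parameter logistic fits yielded IC50 and Ymax.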

[2] = target: His-GST-TVMV-hRIPK1 (1-324) (Homo sapiens (Human), UniProt Q13546); assay: RIPK1 HTRF Binding Assay; conditions: read-out: RIPK1 HTRF (IC50); FRET probe displacement, 1 h at rt
Sequence of His-GST-TVMV-hRIPK1 (1-324) (Q13546 1-324): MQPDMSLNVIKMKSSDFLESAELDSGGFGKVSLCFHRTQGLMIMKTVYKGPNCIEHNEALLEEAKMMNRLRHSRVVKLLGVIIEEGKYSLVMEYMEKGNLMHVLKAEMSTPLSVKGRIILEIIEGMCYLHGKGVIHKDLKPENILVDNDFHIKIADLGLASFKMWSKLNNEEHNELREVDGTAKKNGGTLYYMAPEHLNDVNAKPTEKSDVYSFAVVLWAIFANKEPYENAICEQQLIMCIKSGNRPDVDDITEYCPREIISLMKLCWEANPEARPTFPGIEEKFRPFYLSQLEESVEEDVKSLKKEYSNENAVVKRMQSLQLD
Description: A solution was prepared containing 0.2 nM Anti GST-Tb (Cisbio, 61GSTTLB), 90.6 nM probe and 1 nM His-GST-TVMV-hRIPK1 (1-324) in FRET Buffer (20 mM HEPES, 10 mM MgCl2, 0.015% Brij-35, 4 mM DTT, 0.05 mg/mL BSA). Using Formulatrix Tempest, the detection antibody/enzyme/probe solution (2 mL) was dispensed into wells of a 1536 plate (Black Low Binding Polystyrene 1536 Plate (Corning, 3724)) containing 10 nL of compounds of interest at appropriate concentration in DMSO. The plate was incubated at rt for 1 h. FRET was measured using the EnVision plate reader (Excitation: 340 nm, Emission: 520 nm/495 nM). Total signal (0% inhibition) was calculated from wells containing 10 nL DMSO only.

| SMILES | IC50 ([1]; Homo sapiens) [µM] | IC50 [2] [µM] | IC50 [1] [µM] |
| --- | --- | --- | --- |
| [2H]C([2H])([2H])Oc1ncc(-c2ccc3c(C(=O)NC([2H])([2H])C([2H])([2H])[2H])n[nH]c3c2)cc1C(=O)N[C@H](c1cc(OC(F)(F)F)ccc1F)C([2H])([2H])[2H] [Example 1] | 0.0061 | 0.017 | – |
| [2H]C([2H])([2H])Oc1ncc(-c2ccc3c(C(=O)NC([2H])([2H])C([2H])([2H])[2H])n[nH]c3c2)cc1C(=O)N[C@H](C)c1ccccc1OC(F)(F)F [Example 2, (R)—N-(ethyl-d5)-6-(6-(methoxy-d3)-5-((1-(2-(trifluoromethoxy)phenyl)ethyl)carbamoyl)pyridin-3-yl)-1H-indazole-3-carboxamide] | 0.0035 | 0.0055 | – |
| [2H]C([2H])([2H])NC(=O)c1n[nH]c2cc(-c3cnc(OC([2H])([2H])[2H])c(C(=O)N[C@H](C)c4cccc(C(F)(F)F)c4)c3)ccc12 [Example 3, (R)-6-(6-(methoxy-d3)-5-((1-(3-(trifluoromethyl)phenyl)ethyl)carbamoyl)pyridin-3-yl)-N-(methyl-d3)-1H-indazole-3-carboxamide] | 0.041 | 0.046 | – |
| [2H]C([2H])([2H])NC(=O)c1n[nH]c2cc(-c3cnc(OC([2H])([2H])[2H])c(C(=O)N[C@H](C)c4ccccc4OC(F)(F)F)c3)ccc12 [Example 7, (R)-6-(6-(methoxy-d3)-5-((1-(2-(trifluoromethoxy)phenyl)ethyl)carbamoyl)pyridin-3-yl)-N-(methyl-d3)-1H-indazole-3-carboxamide] | 0.0046 | 0.0085 | – |
| [2H]C([2H])([2H])NC(=O)c1n[nH]c2cc(-c3cnc(OC([2H])([2H])[2H])c(C(=O)N[C@@H]4CN(C(=O)C5CC(F)(F)C5)C[C@@H]4F)c3)ccc12 [Example 12, 6-(5-(((3R,4S)-1-(3,3-difluorocyclobutanecarbonyl)-4-fluoropyrrolidin-3-yl)carbamoyl)-6-methoxyd3-pyridin-3-yl)-N-methyl d3-1H-indazole-3-carboxamide] | 0.4 | 0.042 | – |
| [2H]C([2H])([2H])Oc1ncc(-c2ccc3c(C(=O)NC4CC4)n[nH]c3c2)cc1C(=O)N[C@H](C)c1ccccc1OC(F)(F)F [Example 13, (R)—N-cyclopropyl-6-(6-methoxyd3-5-((1-(2-(trifluoromethoxy)phenyl)ethyl)carbamoyl)pyridin-3-yl)-1H-indazole-3-carboxamide] | 0.0051 | 0.0055 | – |
| [2H]C([2H])([2H])Oc1ncc(-c2ccc3c(C(=O)NC)n[nH]c3c2)cc1C(=O)NC([2H])([2H])c1ccccc1OC(F)(F)F [Example 16, 6-(6-methoxy D3-5-((2-(trifluoromethoxy)benzyl D2)carbamoyl)pyridin-3-yl)-N-methyl-1H-indazole-3-carboxamide] | 0.0086 | 0.0022 | – |
| CNC(=O)c1n[nH]c2cc(-c3cnc(OC)c(-c4nnn(Cc5ccccc5)n4)c3)ccc12 [Example 20, 6-[5-(2-benzyl-2H-1,2,3,4-tetrazol-5-yl)-6-methoxypyridin-3-yl]-N-methyl-1H-indazole-3-carboxamide] | 0.027 | 0.066 | – |
| [2H]C([2H])([2H])Oc1ncc(-c2ccc3c(C(=O)NC4CCC(N(C([2H])([2H])[2H])C([2H])([2H])[2H])CC4)n[nH]c3c2)cc1C(=O)NC(C)c1cccc(OC(F)(F)F)c1 (stereo not shown) [Example 23, N-(4-(dimethyld6-amino)cyclohexyl)-6-(6-methoxyd3-5-((1-(3-(trifluoromethoxy)phenyl)ethyl)carbamoyl)pyridin-3-yl)-1H-indazole-3-carboxamide] | 0.14 | 0.024 | – |
| [2H]C([2H])([2H])Oc1ncc(-c2ccc3c(C(=O)NC)n[nH]c3c2)cc1C(=O)NCCC(=O)OC(C)(C)C [Example 26, tert-butyl 3-{[2-(deutero)methoxy-5-[3-(methylcarbamoyl)-1H-indazol-6-yl]pyridin-3-yl]form-amido}propanoate] | 0.09 | 0.082 | – |
| [2H]C([2H])([2H])Oc1ncc(-c2ccc3c(C(=O)NC)n[nH]c3c2)cc1C(=O)NCC[C@H](O)c1ccc(Cl)cc1 [Example 27, 6-(5-{[(3S)-3-(4-chlorophenyl)-3-hydroxypropyl]carbamoyl}-6-(deutero)methoxypyridin-3-yl)-N-methyl-1H-indazole-3-carbox-amide, TFA] | 0.008 | 0.0025 | – |
| [2H]C([2H])([2H])Oc1ncc(-c2ccc3c(C(=O)NC)n[nH]c3c2)cc1C(=O)NCC(C)(C)C(=O)OC(C)(C)C [Example 28, tert-butyl 3-{[2-(deutero)meth-oxy-5-[3-(methylcarbamoyl)-1H-indazol-6-yl]pyridin-3-yl]form-amido}-2,2-dimethylpropanoate, TFA] | 0.037 | 0.017 | – |
| [2H]C([2H])([2H])Oc1ncc(-c2ccc3c(C(=O)NC)n[nH]c3c2)cc1C(=O)N[C@H](C)c1cccc(C(F)(F)F)c1 [Example 34, 6-[6-(deutero)methoxy-5-{[(1R)-1-[3-(trifluoromethyl)phenyl]-ethyl]carbamoyl}pyridin-3-yl]-N-methyl-1H-indazole-3-carbox-amide] | 0.092 | 0.057 | – |
| [2H]C([2H])([2H])Oc1ncc(-c2ccc3c(C(=O)NC)n[nH]c3c2)cc1C(=O)N[C@@H](C)c1cccc(C(F)(F)F)c1 [Example 35, 6-[6-(deutero)methoxy-5-{[(1S)-1-[3-(trifluoromethyl)phenyl]-ethyl]carbamoyl}pyridin-3-yl]-N-methyl-1H-indazole-3-carboxamide] | 0.044 | 0.01 | – |
| [2H]C([2H])([2H])Oc1ncc(-c2ccc3c(C(=O)NC)n[nH]c3c2)cc1C(=O)NC(C)c1cc(F)ccc1C(F)(F)F (stereo not shown) [Example 36, 6-[5-({1-[5-fluoro-2-(trifluoro-methyl)phenyl]ethyl}carbamoyl)-6-(deutero)methoxypyridin-3-yl]-N-methyl-1H-indazole-3-carbox-amide] | 0.02 | 0.0093 | – |
| CNC(=O)c1n[nH]c2cc(-c3cnc(OC)c(C(=O)NCCC(C)c4ccccc4)c3)ccc12 (stereo not shown) [Example 37, 6-{6-methoxy-5-[(3-phenylbutyl)-carbamoyl]pyridin-3-yl}-N-methyl-1H-indazole-3-carbox-amide] | – | 0.0017 | 0.0003 |
| CNC(=O)c1n[nH]c2cc(-c3cnc(OC)c(C(=O)NCc4ccccc4CN(C)C)c3)ccc12 [Example 54, 6-{5-[({2-[(dimethylamino)-methyl]phenyl}methyl)carbam-oyl]-6-methoxypyridin-3-yl}-N-methyl-1H-indazole-3-carboxamide] | – | 0.028 | 0.12 |
| CNC(=O)c1n[nH]c2cc(-c3cnc(OC)c(C(=O)NCCCOc4ccccc4)c3)ccc12 [Example 55, 6-{6-methoxy-5-[(3-phenoxy-propyl)carbamoyl]pyridin-3-yl}-N-methyl-1H-indazole-3-carboxamide] | 0.027 | 0.012 | – |
| CNC(=O)c1n[nH]c2cc(-c3cnc(OC)c(C(=O)NCC(O)COc4ccccc4)c3)ccc12 (stereo not shown) [Example 56, 6-{5-[(2-hydroxy-3-phenoxy-propyl)carbamoyl]-6-meth-oxypyridin-3-yl}-N-methyl-1H-indazole-3-carboxamide] | 0.026 | 0.0084 | – |
| CNC(=O)c1n[nH]c2cc(-c3cnc(OC)c(C(=O)NCCCOC4CCCCC4)c3)ccc12 [Example 62, 6-(5-{[3-(cyclohexyloxy)-propyl]carbamoyl}-6-methoxy-pyridin-3-yl)-N-methyl-1H-indazole-3-carboxamide] | 0.026 | 0.0068 | – |
